Test results from ChEMBL document CHEMBL3885861, “Open TG-GATES”.

Species: Rattus norvegicus
Experiment: Open TG-GATES - Regimen: Daily Repeat
Type: toxicity, organism-based, Sprague-Dawley
Parameters: regimen Daily Repeat, gender Male, age 6 weeks
Details: in vivo, po, 100 mg/kg, […], route gavage, dose level Low; for KIDNEY_L / KIDNEY_R / KIDNEY_TOTAL: tissue Kidney; for LIVER: tissue Liver; for A/G / ALP / ALT / AST / BUN / CRE / Ca / Cl / DBIL / GLC / IP / K / LDH / Na / PL / RALB / TBIL / TC / TG / TP / gamma-GTP: tissue Plasma

`CCN1CCCC1CNC(=O)c1cc(S(N)(=O)=O)ccc1OC` (stereo unspecified) [SULPIRIDE] showed a Lym (tissue Blood, time 28 day) of 76.2%, an MCH (tissue Blood, time 28 day) of 19.8 pg and an MCHC (tissue Blood, time 28 day) of 34.2%. For the same compound, the MCV (tissue Blood, time 28 day) was 57.7 fL, the Mono (tissue Blood, time 28 day) was 1.8% and the Neu (tissue Blood, time 28 day) was 19.8%. It also gave a PT (tissue Blood, time 28 day) of 13 s, a Plat (tissue Blood, time 28 day) of 110.8 x10_4/uL and an RBC (tissue Blood, time 28 day) of 812.6 x10_4/ul. For the same compound, the Ret (tissue Blood, time 28 day) was 2.2%, the WBC (tissue Blood, time 28 day) was 95.5 x10_2/uL and the KIDNEY_L (time 7 day) was 1.1 g. For the same compound, the KIDNEY_R (time 7 day) was 1.1 g, the KIDNEY_TOTAL (time 7 day) was 2.2 g and the KIDNEY_L (time 14 day) was 1.2 g. The KIDNEY_R (time 14 day) was 1.2 g, the KIDNEY_TOTAL (time 14 day) was 2.4 g and the KIDNEY_L (time 28 day) was 1.2 g. It also gave a KIDNEY_R (time 28 day) of 1.2 g, a KIDNEY_TOTAL (time 28 day) of 2.5 g and an LIVER (time 7 day) of 12.9 g. The LIVER (time 14 day) was 14.2 g, the LIVER (time 28 day) was 14.4 g and the A/G (time 7 day) was 0.9. For the same compound, the ALP (time 7 day) was 1433 IU/L, the ALT (time 7 day) was 45.4 IU/L and the AST (time 7 day) was 66.6 IU/L. The BUN (time 7 day) was 14.8 mg/dL, the CRE (time 7 day) was 0.2 mg/dL and the Ca (time 7 day) was 10.7 mg/dL. It also gave a Cl (time 7 day) of 105.6 meq/L, a DBIL (time 7 day) of 0.008 mg/dL and a GLC (time 7 day) of 175.2 mg/dL. It also gave an IP (time 7 day) of 7.5 mg/dL, a K (time 7 day) of 4.4 meq/L and an LDH (time 7 day) of 64.2 IU/L. The Na (time 7 day) was 141.8 meq/L, the PL (time 7 day) was 145.2 mg/dL and the RALB (time 7 day) was 2.6 g/dL. For the same compound, the TBIL (time 7 day) was 0.056 mg/dL, the TC (time 7 day) was 70.4 mg/dL and the TG (time 7 day) was 116.4 mg/dL. For the same compound, the TP (time 7 day) was 5.6 g/dL, the gamma-GTP (time 7 day) was 1 IU/L and the A/G (time 14 day) was 0.9. For the same compound, the ALP (time 14 day) was 1376.8 IU/L, the ALT (time 14 day) was 38.8 IU/L and the AST (time 14 day) was 68.5 IU/L. For the same compound, the BUN (time 14 day) was 15.8 mg/dL, the CRE (time 14 day) was 0.2 mg/dL and the Ca (time 14 day) was 11 mg/dL. The Cl (time 14 day) was 104.5 meq/L, the DBIL (time 14 day) was 0.015 mg/dL and the GLC (time 14 day) was 197 mg/dL. It also gave an IP (time 14 day) of 7.6 mg/dL, a K (time 14 day) of 3.9 meq/L and an LDH (time 14 day) of 73.5 IU/L. For the same compound, the Na (time 14 day) was 141.2 meq/L, the PL (time 14 day) was 145.5 mg/dL and the RALB (time 14 day) was 2.7 g/dL. It also gave a TBIL (time 14 day) of 0.06 mg/dL, a TC (time 14 day) of 67.5 mg/dL and a TG (time 14 day) of 149 mg/dL. The TP (time 14 day) was 5.8 g/dL, the gamma-GTP (time 14 day) was 1 IU/L and the A/G (time 28 day) was 0.8. For the same compound, the ALP (time 28 day) was 981.6 IU/L, the ALT (time 28 day) was 36 IU/L and the AST (time 28 day) was 65.6 IU/L. For the same compound, the BUN (time 28 day) was 17.2 mg/dL, the CRE (time 28 day) was 0.3 mg/dL and the Ca (time 28 day) was 10.5 mg/dL. It also gave a Cl (time 28 day) of 105.2 meq/L, a DBIL (time 28 day) of 0.008 mg/dL and a GLC (time 28 day) of 178 mg/dL. For the same compound, the IP (time 28 day) was 6.4 mg/dL, the K (time 28 day) was 3.8 meq/L and the LDH (time 28 day) was 173.6 IU/L. For the same compound, the Na (time 28 day) was 142.6 meq/L, the PL (time 28 day) was 136 mg/dL and the RALB (time 28 day) was 2.8 g/dL. The TBIL (time 28 day) was 0.068 mg/dL, the TC (time 28 day) was 63 mg/dL and the TG (time 28 day) was 112 mg/dL. For the same compound, the TP (time 28 day) was 6.2 g/dL and the gamma-GTP (time 28 day) was 1 IU/L.
